Test results taken from US11478445B2, “Method for treating acute myeloid leukemia” (Bionomics Limited, priority 2017, dated 2022).
Entries after “also recorded” stand apart in the source; their conditions may differ.

Legend:
Assay type in all cases: cell-based
AML cell lines [1] = assay: Mitochondria O2.- assay (MitoSox, flow cytometry)
Experimental: 1.25×10^5 cells were harvested into 5 mL tubes and washed with PBS. Cell pellets were resuspended in 180 μL of PBS and 20 μL of freshly prepared 5 mM MitoSox (Molecular Probes, M36008) solution added to each tube. All tubes were incubated at 37° C. for 20 min and then cells washed 3 times with PBS. Cells were resuspended in 300 μL PBS and analysed on an LSRFortessa (BD Biosciences) flow cytometer. Results were analysed with FCS Express 4 Flow Research Edition software (De Novo Software).
(§1) For that, cells were plated at 10^6 cells/mL and treated with vehicle (DMSO) alone or a range of doses of EX 1 (0.1 nM, 1 nM, 10 nM and 100 nM) for 6 h, 8 h and 24 h. Cells were harvested for detection of ROS and superoxide anion (O2^·−) levels at 6 h and 24 h, for protein extraction at 8 h and 24 h, and for cell cycle analysis at 24 h.
Total ROS levels were measured by flow cytometry using the fluorogenic dye CM-H2DCFDA at a final concentration of 5 μM. Mitochondria superoxide anion (O2^·−) levels were measured by flow cytometry using MitoSox, also at a final concentration of 5 μM.

AML cell lines [2] = assay: Cell cycle assay (PI staining)
Experimental: 2×10^5 cells were harvested into 5 mL tubes and washed 3 times with PBS. Cell pellets were resuspended in 300 μL of cold PBS while vortexing. Next, cells were permeabilised with 700 μL of cold (−20° C.) 100% ethanol added dropwise while vortexing at slow speed. Cell suspensions were incubated on ice for 30 min, centrifuged at 300 g for 10 min and cell pellets resuspended in 100 μL PI solution (0.1% Triton X-100, 100 μg/mL DNAse-free RNAse A-Sigma, and 40 µg/mL PI in PBS). Cell suspensions were incubated at 37° C. for 30 min in the dark. 200 μL of PBS was added to each tube before analysis on an LSRFortessa (BD Biosciences) flow cytometer. Results were analysed with FCS Express 4 Flow Research Edition software (De Novo Software).
as §1
Therefore, cell cycle analysis was performed by PI staining in the cell lines after 24 h of treatment with a range of doses of EX 1, as described above.

P-JNK^Thr183/Tyr185 = assay: Western blot for P-JNK in AML cell lines; conditions: all cell lines, 8 h, 10 nM and 100 nM
Experimental: Cells were harvested (4×10^6 for cell lines and 7×10^6 for L-AMLs) and washed 3 times with cold PBS (centrifuged at 4° C.). Lysis buffer was prepared with NP40 Cell Lysis Buffer (ThermoFisher Scientific), cOmplete protease inhibitor (Roche, 046993116001), PhosStop (Roche, 04906837001) and Pefablock (Roche, 11585916001) at the recommended concentrations. After the washes, cells were resuspended in 50 μL of lysis buffer, vortexed and incubated on ice for 30 min. Samples were vortexed every 10 min. After 30 min incubation, samples were centrifuged at 14,000 g at 4° C. for 10 min and supernatants were transferred to tubes. Protein was quantified using the DC Protein Assay kit (BioRad) per manufacturer's protocol. 50 μg of cell lines lysate or 20 μg of L-AML6 lysate were loaded for SDS-PAGE. Protein was transferred from the gels into PVDF membranes using a semi dry transfer apparatus (BioRad). […]
Once it was determined that this group of AML cell lines are highly sensitive to EX 1, the mechanism underlying this response was investigated. […]
Therefore, cells were treated with a range of doses of EX 1 for 8 h and 24 h, as described above, before protein extraction was performed. […] Noxa was readily detected in control lysate prepared from HEK293 cells.

COc1cc(C(=O)c2c(C)oc3c(O)c(OC)ccc23)cc(OC)c1OC [EX 1, 2-Methyl-7-hydroxy-3-(3,4,5-trimethoxybenzoyl)-6-methoxybenzofuran] was tested, and the “mitochondria O2.- levels” value (AML cell lines [1]; HL60 and ME1, 6 h) was “showed a decrease in mitochondria O2^·− levels”, the “mitochondria O2.- levels” value (AML cell lines [1]; KG1) was “did not respond to the drug treatment with any detectable changes” and the “mitochondria O2.- levels” value (AML cell lines [1]; ME1, 24 h) was “even greater effect observed at 24 h”. For the same molecule, the “mitochondria O2.- levels” value (AML cell lines [1]; MV4;11 and MOLM13, 24 h) was “increased mitochondria O2^·− levels observed at 24 h only”, the “mitochondria O2.- levels” value (AML cell lines [1]; OCI-AML3, 6 h) was “slight decrease” and the “mitochondria O2.- levels” value (AML cell lines [1]; OCI-AML3, 24 h) was “appeared to have increased O2^·− levels”. For the same molecule, the “cell cycle distribution (G2/M)” value (AML cell lines [2]; HL60, KG1, OCI-AML3 and ME1, 24 h) was “G2/M cell cycle arrest”, the sub-G0 cell population (AML cell lines [2]; KG1 and HL60, 24 h) was “marked increases in the sub-G0 cell population; also recorded: increase in sub-G0 population starting at treatment with 10 nM” and the “percentage of cells in G2/M and G1” value (AML cell lines [2]; MV4;11 and MOLM13, 24 h) was “dose-dependent reduction”. The “sub-G0 population (apoptosis)” value (AML cell lines [2]; MV4;11 and MOLM13, 24 h) was “underwent apoptosis as evidenced by the increase in sub-G0 population”, the “cell cycle distribution (sub-G0, G2/M)” value (AML cell lines [2]; MV4;11 and MOLM13, 24 h, 10 nM) was “marked apoptosis induction (sub-G0 gate) and G2/M reduction” and the P-JNK induction (P-JNK^Thr183/Tyr185) was “strongly induced in all cell lines; also recorded: induced in all cell lines”.
